Source: patent US10633389B2, “CARM1 inhibitors and uses thereof” (Epizyme, Inc., priority 2013, dated 2020)
pIC50: −log10 of the molar value.

Test system: asymmetric di-methyl PABP1 in RKO cells
Experiment: RKO methylation assay, In Cell Western (ICW) for asymmetric di-methyl PABP1
Format: cell-based
Settings: Homo sapiens, RKO, Cellular potencies, ICW PABP1me2a
Outline: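 In-cell Western on fixed RKO cells after 48 h compound exposure: anti-asymmetric di-methyl PABP1 signal at 800 nm over DRAQ5 DNA signal at 700 nm. Percent inhibition set between DMSO wells and wells with 20 μM reference compound; IC50 curves fitted in triplicate.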

SMILES | pIC50
CNCC(O)COc1cccc(-c2nc(-c3c(C)noc3C)cc(N(C)C3CCOCC3)n2)c1 (stereo not shown) [Example 1-1a] | > 5.30
CNCC(O)COc1cccc(-c2nc(-c3c(C)noc3C)cc(N3C[C@@H]4C[C@H]3CN4C(=O)OC)n2)c1 (stereo partly shown) [Example 94-1a] | > 5.30
CCC1(CNc2nc(-c3cccc(OCC(O)CNC)c3)nc(-c3c(C)noc3C)c2C)CCOCC1 (stereo not shown) [Example 141-1a] | > 5.30
CNCC(O)COc1cccc(-c2nc(N[C@@H]3CCOC3)c(C)c(N3CCN(C4CC4)[C@H](C)C3)n2)c1 (stereo partly shown) [Example 466-1a] | > 5.30
CNCC(O)COc1cccc(-c2nc(N3CCNCC3)c(C)c(N(C)C3CCOCC3)n2)c1 (stereo not shown) [Example 560-1a] | 4.70 to 5.00
CNC[C@@H](O)COc1ccc(Cl)c(-c2nc(-c3c(C)noc3C)c(C)c(N3Cc4cn(C(C)C)nc4C3)n2)c1 [Example 272-3] | > 5.30
CNCC(O)COc1cccc(-c2nc(-c3c(C)noc3C)c(C)c(N3CCO[C@@H](CN(C)C(=O)N(C)C)C3)n2)c1 (stereo partly shown) [Example 176-1a] | > 5.30
CNCC(O)COc1cccc(-c2nc(-c3c(C)noc3C)c(C)c(N3CCO[C@@H](CN(C)C)C3)n2)c1 (stereo partly shown) [Example 148-1a] | > 5.30
CNCC(O)COc1cccc(-c2nc(N3CCN(C(=O)OC)[C@@H](C)C3)cc(N(C)C3CCOCC3)n2)c1 (stereo partly shown) [Example 581-1a] | 4.70 to 5.00
CNCC(O)COc1cccc(-c2nc(-c3c(C)noc3C)cc(N3CCN(CCF)[C@@H](C)C3)n2)c1 (stereo partly shown) [Example 103-1a] | > 5.30
CNCC(O)COc1ccc(Cl)c(-c2nc(NCC3CCCCO3)c(C)c(-c3c(C)noc3C)n2)c1 (stereo not shown) [Example 31-3] | > 5.30
CCOC(=O)N1CC[C@H](Nc2nc(-c3cc(OC[C@H](O)CNC)ccc3Cl)nc(-c3c(C)noc3C)c2C)C1 [Example 150-3] | > 5.30
CNCC(O)COc1cccc(-c2nc(N[C@@H]3CCOC3)c(C)c(-n3nc(C)cc3C)n2)c1 (stereo partly shown) [Example 382-1a] | 4.70 to 5.00
CNC[C@@H](O)COc1ccc(Cl)c(-c2nc(-c3c(C)noc3C)c(Cl)c(N3Cc4ccncc4C3)n2)c1 [Example 214-3] | > 5.30
CNC[C@@H](O)COc1ccc(Cl)c(-c2nc(-c3c(C)noc3C)c(C)c(N3CC4(CCN(C5CC5)CC4)C3)n2)c1 [Example 108-3] | > 5.30
CNCC(O)COc1cccc(-c2nc(N(C)C3CCOCC3)cc(-n3nc(C)cc3C)n2)c1 (stereo not shown) [Example 568-1a] | 4.70 to 5.00
CNCC(O)COc1cccc(-c2nc(NC3CCOC3)c(C)c(N3CCN(C(=O)OC)C(C)(C)C3)n2)c1 (stereo not shown) [Example 447-1a] | 4.70 to 5.00
CNC[C@@H](O)COc1ccc(Cl)c(-c2nc(-c3c(C)noc3C)c(C)c(N3Cc4cnn(C5CC5)c4C3)n2)c1 [Example 270-3] | > 5.30
CNCC(O)COc1cccc(-c2nc(NC3CCOCC3)c(F)c(-c3c(C)noc3C)n2)c1 (stereo not shown) [Example 96-1a] | > 5.30
CNCC(O)COc1cccc(-c2nc(N[C@@H]3CCOC3)c(C)c(-c3cnc(OC)nc3)n2)c1 (stereo partly shown) [Example 356-1a] | 4.70 to 5.00
CCS(=O)(=O)N1CCCC(CNc2nc(-c3cccc(OCC(O)CNC)c3)nc(-c3c(C)noc3C)c2C)C1 (stereo not shown) [Example 167-1a] | > 5.30
CNCC(O)COc1cccc(-c2nc(N[C@@H]3CCN(C(=O)OC)C[C@@H]3F)c(C)c(-c3c(C)noc3C)n2)c1 (stereo partly shown) [Example 225-1a] | > 5.30
CNCC(O)COc1cccc(-c2nc(-c3c(C)noc3C)cc(N3CCN(CC(F)(F)F)CC3)n2)c1 (stereo not shown) [Example 132-1a] | > 5.30
CNCC(O)COc1cccc(-c2nc(NC3(CO)CC3)c(C)c(-c3c(C)noc3C)n2)c1 (stereo not shown) [Example 5-3] | 5.00 to 5.30
CNC[C@@H](O)COc1cccc(-c2nc(-c3cn(S(C)(=O)=O)c4ncncc34)cc(N(C)C3CCOCC3)n2)c1 [Example 511-1a] | 5.00 to 5.30

SMILES | pIC50
CNCC(O)COc1cccc(-c2nc(N[C@@H]3CCOC3)cc(-c3c(C)noc3C)n2)c1 (stereo partly shown) [Example 11-1a] | 5.00 to 5.30
CNCC(O)COc1cccc(-c2nc(-c3c(C)noc3C)cc(N3CCN(CC(F)F)CC3)n2)c1 (stereo not shown) [Example 79-1a] | > 5.30
CNC[C@@H](O)COc1cccc(-c2nc(NC3CCOCC3)cc(-c3c(C)noc3C)n2)c1 [Example 18-1a] | > 5.30
CCN1CCC(Nc2nc(-c3cc(OC[C@H](O)CNC)ccc3Cl)nc(-c3c(C)noc3C)c2C)C(F)(F)C1 (stereo partly shown) [Example 291-3] | > 5.30
CNCC(O)COc1cccc(-c2nc(N[C@@H]3CCOC3)c(C)c(N3CCC(S(C)(=O)=O)CC3)n2)c1 (stereo partly shown) [Example 441-1a] | 5.00 to 5.30
CNCC(O)COc1cccc(-c2nc(NC3CCN(C(=O)N(C)C)CC3)c(C)c(-c3c(C)noc3C)n2)c1 (stereo not shown) [Example 244-1a] | > 5.30
CNC[C@@H](O)COc1ccc(Cl)c(-c2nc(-c3c(C)noc3C)c(C)c(N3CCc4nn(C)cc4C3)n2)c1 [Example 122-3] | > 5.30
CNC[C@@H](O)COc1ccc(F)c(-c2nc(-c3c(C)noc3C)c(C)c(N3Cc4cc(OC)cnc4C3)n2)c1 [Example 244-3] | > 5.30
CNCC(O)COc1cccc(-c2nc(N[C@H]3C[C@@H](O)C3)cc(-c3c(C)noc3C)n2)c1 (stereo partly shown) [Example 41-1a] | 4.70 to 5.00
CNCC(O)COc1cccc(-c2nc(Nc3nccn3C)c(C)c(-c3c(C)noc3C)n2)c1 (stereo not shown) [Example 18-3] | 4.70 to 5.00
CNC[C@H](O)COc1ccc(Cl)c(-c2nc(-c3c(C)noc3C)c(C)c(N3Cc4cc(Cl)cnc4C3)n2)c1 [Example 87-3] | > 5.30
CNCC(O)COc1cccc(-c2nc(-c3c(C)noc3C)c(C)c(N(C)C)n2)c1 (stereo not shown) [Example 308-1a] | > 5.30
CNCC(O)COc1cccc(-c2nc(NC3CCOCC3)cc(-c3cnn(CC(C)C)c3)n2)c1 (stereo not shown) [Example 51-1] | 4.70 to 5.00
CNC[C@@H](O)COc1ccc(Cl)c(-c2nc(-c3c(C)noc3C)c(F)c(N3CC4(CCOCC4)C3)n2)c1 [Example 261-3] | > 5.30
CNCC(O)COc1cccc(-c2nc(N[C@@H]3CCOC3)c(C)c(N3CCN(CC(=O)N(C)C)CC3)n2)c1 (stereo partly shown) [Example 391-1a] | 4.70 to 5.00
CNCC(O)COc1cc(Cl)cc(-c2nc(-c3c(C)noc3C)cc(-c3c(C)noc3C)n2)c1 (stereo not shown) [Example 4-1a] | 4.70 to 5.00
CNC[C@@H](O)COc1ccc(Cl)c(-c2nc(N[C@H]3CCO[C@H](C)C3)c(Cl)c(-c3c(C)noc3C)n2)c1 [Example 197-3] | > 5.30
CNC[C@@H](O)COc1ccc(Cl)c(-c2nc(-c3c(C)noc3C)c(C)c(N3Cc4cc(Cl)cnc4C3)n2)c1 [Example 156-3] | > 5.30
CNCC(O)COc1cccc(-c2nc(-c3cnc4ccnn4c3)cc(N(C)C3CCOCC3)n2)c1 (stereo not shown) [Example 564-1a] | 4.70 to 5.00
CNC[C@@H](O)COc1ccc(Cl)c(-c2nc(N[C@H]3CO[C@H](C)C3)c(Cl)c(-c3c(C)noc3C)n2)c1 [Example 201-3] | > 5.30
CNCC(O)COc1cccc(-c2nc(NC3CCCN(C(=O)N(C)C)C3)c(C)c(-c3c(C)noc3C)n2)c1 (stereo not shown) [Example 216-1a] | > 5.30
CNCC(O)COc1cccc(-c2nc(N[C@@H]3CCOC3)c(C)c(N3CCC(c4cccnc4)C3)n2)c1 (stereo partly shown) [Example 461-1a] | 4.70 to 5.00
CCOC(=O)N1CCOC[C@@H]1COc1nc(-c2cc(OC[C@H](O)CNC)ccc2Cl)nc(-c2c(C)noc2C)c1C [Example 161-3] | > 5.30
CNCC(O)COc1cccc(-c2nc(NC3CCN(C(=O)C4CC4)C3)c(C)c(-c3c(C)noc3C)n2)c1 (stereo not shown) [Example 243-1a] | > 5.30
